For orientation: AUC(0-inf) means total exposure, with the tail of the curve extrapolated. A lower AUC(0-inf) goes with low exposure. As a reminder, the Cmax is the peak of the concentration-time curve. Broadly, the Tmax is the time from dosing to the highest level. As a reminder, the half-life is how long it takes for the measured level to halve. A word on the MRT: it is the average time that molecules of a dose stay in the body. The clearance is the volume of plasma or blood freed of the substance per unit of time. Low readings indicate a low capacity for elimination, high ones a high capacity for elimination. Usually Papp A→B stands for the apparent permeability from the apical to the basolateral side of a cell layer. The Papp B→A is the apparent permeability from the basolateral to the apical side of a cell layer.

A short description of series [1]: AUCinf in CD-1 mouse at 0.5 mg/kg, iv by LC-MS/MS analysis. Details: time infinity, dose 0.5 mg/kg, route iv. To be noted: in vivo. The series is classed as ADME, organism-based.
Series [2] is described as follows: AUCinf in CD-1 mouse at 2 mg/kg, po by LC-MS/MS analysis. The series is classed as ADME, organism-based. Further details: time infinity, dose 2 mg/kg, route po. The conditions noted are these: in vivo.
Series [3] in a line: Cmax in CD-1 mouse at 0.5 mg/kg, iv by LC-MS/MS analysis. The series is classed as ADME, organism-based. Details: dose 0.5 mg/kg, route iv. The conditions noted are these: in vivo.
The nature of series [4]: Cmax in CD-1 mouse at 2 mg/kg, po by LC-MS/MS analysis. The conditions noted are these: in vivo. Details: dose 2 mg/kg, route po. The series is classed as ADME, organism-based.
Series [5] in a line: Tmax in CD-1 mouse at 2 mg/kg, po by LC-MS/MS analysis. The series is classed as ADME, organism-based. To be noted: in vivo.
The nature of series [6]: Half life in CD-1 mouse at 0.5 mg/kg, iv by LC-MS/MS analysis. To be noted: in vivo. The series is classed as ADME, organism-based.
Series [7] is described as follows: Half life in CD-1 mouse at 2 mg/kg, po by LC-MS/MS analysis. The series is classed as ADME, organism-based. To be noted: in vivo.
A short description of series [8]: Volume of distribution at steady state in CD-1 mouse at 0.5 mg/kg, iv by LC-MS/MS analysis. The series is classed as ADME, organism-based. The conditions noted are these: in vivo, read-out: Vdss.
A short description of series [9]: MRT in CD-1 mouse at 0.5 mg/kg, iv by LC-MS/MS analysis. To be noted: in vivo. The series is classed as ADME, organism-based.
Series [10] can be described thus: MRT in CD-1 mouse at 2 mg/kg, po by LC-MS/MS analysis. The series is classed as ADME, organism-based. To be noted: in vivo.
Series [11] in a line: Clearance in CD-1 mouse at 0.5 mg/kg, iv by LC-MS/MS analysis. The series is classed as ADME, organism-based. To be noted: in vivo.
Series [12] can be described thus: Oral bioavailability in CD-1 mouse at 2 mg/kg by LC-MS/MS analysis. To be noted: in vivo. The series is classed as ADME, organism-based.
Series [13] in a line: in vitro. The conditions noted are these: human, Caco-2.
The nature of series [14]: in vitro. To be noted: human, Caco-2. This is another data set of the same source.
Series [15] in a line: in vitro. The conditions noted are these: mouse, liver microsomes. A general note: Microsomes from liver hold many membrane-bound enzymes, among them those of drug oxidation.
Series [16] can be described thus: in vitro. To be noted: human, liver microsomes.

In the case of `Cc1[nH]nc(-c2ccncc2)c1-c1ccc(-c2cccc(S(N)(=O)=O)c2)c(C2CC2)c1`, the AUC(0-inf) in [1] was determined as 0.58 µM·h; in series [2], 2.55 µM·h. The Cmax in series [3] and in [4] was 580 nM throughout. Further, in series [5], the Tmax worked out at 1 h. Moreover, the half-life is 0.8 h in [6] and 1.25 h in series [7]. The Vd in series [8] turned out to be 2 L/kg. In addition, the mean residence time MRT in series [9] came to 1.01 h; in series [10] it was 3.01 h. Further, the clearance in series [11] was 33.5 mL/min/kg. The bioavailability in series [12] was determined as 111%. Moreover, in [13], the apparent permeability from apical to basolateral (Papp A→B) at 2 h, 10 µM worked out at 8.78 ×10⁻⁶ cm/s. Further, the Papp B→A at 2 h, 10 µM in [14] came to 27 ×10⁻⁶ cm/s. The values for the half-life at 40 min in series [15] and in [16] were 0.5 h and 2.65 h, respectively.

The record behind these values is ChEMBL document CHEMBL5131546, “Discovery of 1H-Pyrazole Biaryl Sulfonamides as Novel G2019S-LRRK2 Kinase Inhibitors” (ACS Med Chem Lett, 2022).
